# Where “and” joins values, the source holds several entries; their conditions need not be identical. Identical values can stand only once. Like-named read-outs stand apart in the source and are kept apart here.
# How the values were obtained:
# [1] = Plasma concentrations during 24-hour continuous intravenous infusion; type: in vivo, Sprague-Dawley rats; details: male, Sprague-Dawley, rat, plasma, iv, male Sprague-Dawley rats
# Method: (§1) The safety and pharmacokinetics of PPTN (KB-1801) in rats receiving continuous intravenous injections of SBECD-containing solutions were analyzed. Three cohorts of six male and six female rats each were given continuous intravenous infusion of PPTN (KB-1801) at 10 mg/kg/day, 30 mg/kg/day or 100 mg/kg/day in a dosing solution containing PPTN at 0.25 mg/mL, 0.75 mg/mL or 2.5 mg/mL and SBECD at about 3.8%. Dosing volume was 40 mIkg/day. [table]
# [2] = Urine concentrations, 24-hour continuous intravenous infusion; type: in vivo, Sprague-Dawley rats; details: for Total amount in urine: all intervals; for Total amount in urine / Amount in urine: individual animals
# Method: as §1, with “mIkg/day.” for “mIkg/day. [table]”
# [3] = Loss of PPTN due to adherence to surfaces of vessels; type: physicochemical; details: 200 ng/ml PPTN, no solubilizing agent; Control 48 h, glass scintillation vial
# [4] = 10 mg/kg, 24-hour intravenous infusion at 10 mg/kg, read-out: Plasma concentration, Mean
# [5] = 10 mg/kg, 24-hour intravenous infusion at 10 mg/kg, read-out: Plasma concentration, individual animal
# [6] = 30 mg/kg, 24-hour intravenous infusion at 30 mg/kg, read-out: Plasma concentration, Mean
# [7] = 30 mg/kg, 24-hour intravenous infusion at 30 mg/kg, read-out: Plasma concentration, individual animal
# [8] = 100 mg/kg, 24-hour intravenous infusion at 100 mg/kg, read-out: Plasma concentration, Mean
# [9] = 100 mg/kg, 24-hour intravenous infusion at 100 mg/kg, read-out: Plasma concentration, individual animal
structure (smiles),measurement,setting,value
"O=C(O)c1cc(-c2ccc(C3CCNCC3)cc2)c2ccc(-c3ccc(C(F)(F)F)cc3)cc2c1 [KB-1801, 4-[4-(piperidin-4-yl)phenyl]-7-[4-(trifluoromethyl)phenyl]-2-naphthoic acid]",concentration at 6 h,[1]; [4],417 ng/mL
same,concentration at 6 h,[1]; [5],508 ng/mL
same,concentration at 8 h,[1]; [4],416 ng/mL
same,concentration at 8 h,[1]; [5],430 ng/mL
same,concentration at 24 h,[1]; [4],703 ng/mL
same,concentration at 1 h,[1]; [6],1020 ng/mL
same,concentration at 2 h,[1]; [6],1100 ng/mL
same,concentration at 4 h,[1]; [6],1320 ng/mL
same,concentration at 4 h,[1]; [7],1460 ng/mL
same,concentration at 6 h,[1]; [6],1470 ng/mL
same,concentration at 6 h,[1]; [7],1170 ng/mL
same,concentration at 8 h,[1]; [6],1500 ng/mL
same,concentration at 8 h,[1]; [7],1450 ng/mL
same,concentration at 24 h,[1]; [6],2830 ng/mL
same,concentration at 24 h,[1]; [7],2880 ng/mL
same,concentration at 1 h,[1]; [8],2120 ng/mL
same,concentration at 1 h,[1]; [9],1530 ng/mL
same,concentration at 2 h,[1]; [8],2760 ng/mL
same,concentration at 4 h,[1]; [8],3940 ng/mL
same,concentration at 4 h,[1]; [9],3560 ng/mL
same,concentration at 6 h,[1]; [8],6660 ng/mL
same,concentration at 8 h,[1]; [8],5770 ng/mL
same,concentration at 8 h,[1]; [9],6520 ng/mL
same,concentration at 24 h,[1]; [8],8740 ng/mL
same,concentration at 24 h,[1]; [9],10700 ng/mL
same,Total amount in urine,"[2]; 24-hour IV infusion 10 mg/kg, female rats",6.29 µg and 1.92 µg and 6.27 µg and 24.6 µg and 20.3 µg and 2.33 µg
same,Amount in urine,"[2]; 24-hour IV infusion 10 mg/kg, female rats, interval 0-4 h",0.16 µg and 0.14 µg and 0.81 µg and 4.98 µg and 2.11 µg
same,Amount in urine,"[2]; 24-hour IV infusion 10 mg/kg, female rats, interval 4-9 h",5.74 µg and 1.32 µg and 11.2 µg and 0.05 µg and 0.23 µg
same,Amount in urine,"[2]; 24-hour IV infusion 10 mg/kg, female rats, interval 9-24 h",0.39 µg and 0.46 µg and 5.46 µg and 13.4 µg and 15.3 µg
same,Total amount in urine,"[2]; 24-hour IV infusion 30 mg/kg, female rats",22.6 µg and 2.00 µg and 6.83 µg and 40.2 µg and 30.9 µg and 57.2 µg
same,Amount in urine,"[2]; 24-hour IV infusion 30 mg/kg, female rats, interval 0-4 h",8.76 µg and 2.00 µg and 0.003 µg and 7.08 µg and 0.71 µg
same,Amount in urine,"[2]; 24-hour IV infusion 30 mg/kg, female rats, interval 4-9 h",9.17 µg and 16.2 µg and 22.6 µg and 29.6 µg
same,Amount in urine,"[2]; 24-hour IV infusion 30 mg/kg, female rats, interval 9-24 h",27.6 µg and 4.65 µg and 6.83 µg and 17.0 µg and 7.56 µg
same,Total amount in urine,"[2]; 24-hour IV infusion 30 mg/kg, male rats",61.7 µg and 63.3 µg and 9.64 µg and 18.1 µg and 243.3 µg and 31.4 µg
same,Amount in urine,"[2]; 24-hour IV infusion 30 mg/kg, male rats, interval 0-4 h",0.01 μg (3×) and 2.03 μg and 0.001 μg and 33.9 μg
same,Amount in urine,"[2]; 24-hour IV infusion 30 mg/kg, male rats, interval 4-9 h",26.0 µg and 43.8 µg and 5.65 µg and 0.003 µg and 11.8 µg and 21.8 µg
same,Amount in urine,"[2]; 24-hour IV infusion 30 mg/kg, male rats, interval 9-24 h",9.64 µg and 35.7 µg and 17.4 µg and 3.98 µg and 18.1 µg and 197.6 µg
same,Total amount in urine,"[2]; 24-hour IV infusion 100 mg/kg, female rats",45.8 µg and 48.8 µg and 64.7 µg and 43.0 µg and 149.9 µg and 171.6 µg
same,Amount in urine,"[2]; 24-hour IV infusion 100 mg/kg, female rats, interval 0-4 h",0.02 µg and 0.01 µg and 9.75 µg and 3.61 µg and 25.6 µg and 10.7 µg
same,Amount in urine,"[2]; 24-hour IV infusion 100 mg/kg, female rats, interval 4-9 h",1.83 µg and 19.3 µg and 5.96 µg and 0.01 µg and 27.4 µg
same,Amount in urine,"[2]; 24-hour IV infusion 100 mg/kg, female rats, interval 9-24 h",133.5 µg and 43.9 µg and 48.8 µg and 35.7 µg and 33.4 µg and 124.3 µg
same,Total amount in urine,"[2]; 24-hour IV infusion 100 mg/kg, male rats",239.6 µg and 82.2 µg and 0.001 µg and 186.8 µg and 228.4 µg and 526.5 µg
same,Amount in urine,"[2]; 24-hour IV infusion 100 mg/kg, male rats, interval 0-4 h",0.12 µg and 40.8 µg and 51.3 µg
same,Amount in urine,"[2]; 24-hour IV infusion 100 mg/kg, male rats, interval 4-9 h",33.6 µg and 26.0 µg and 0.001 µg and 24.1 µg and 32.1 µg and 71.5 µg
same,Amount in urine,"[2]; 24-hour IV infusion 100 mg/kg, male rats, interval 9-24 h",403.7 µg and 206.0 µg and 56.1 µg and 162.6 µg and 155.6 µg
same,"Total amount in urine, individual animal","[2]; male Sprague-Dawley rats, 24-hour intravenous infusion at 10 mg/kg, 0-24 h, 10 mg/kg",45.5 µg and 49.8 µg and 14.8 µg and 67.4 µg and 19.0 µg and 3.25 µg
same,"Amount in urine, individual animal","[2]; male Sprague-Dawley rats, 24-hour intravenous infusion at 10 mg/kg, time interval 0-4 h, 10 mg/kg",5.36 µg and 2.11 µg and 2.02 µg and 11.1 µg and 0.03 µg
same,"Amount in urine, individual animal","[2]; male Sprague-Dawley rats, 24-hour intravenous infusion at 10 mg/kg, time interval 4-9 h, 10 mg/kg",4.47 µg and 0.35 µg and 6.15 µg and 0.52 µg
same,"Amount in urine, individual animal","[2]; male Sprague-Dawley rats, 24-hour intravenous infusion at 10 mg/kg, time interval 9-24 h, 10 mg/kg",3.23 µg and 35.7 µg and 47.3 µg and 6.64 µg and 56.3 µg and 18.5 µg
same,Urine concentration compared with plasma,"[2]; rats, continuous intravenous infusion for 24 or 72 hours",generally in excess of plasma concentrations
same,% recovery vs. standard,[3],26%
